In data set [1] the test system is Pyruvate Kinase M2 (PKM2). Put plainly: Western blot, Pyruvate Kinase M2 levels. The following applies: cancer cells tested. The format is cell-based, human. As for the experimental part: The samples were processed and run on a 4-12% Bis-Tris Novex NuPAGE gel as described above. The gels were run, transferred and stained essentially as described above.
The lactate dehydrogenase blots were stripped by incubating for 30 minutes with methanol, followed by two 10 minute washes with TBS-T, then 30 minutes of incubation with Stripping buffer at 50 deg C., and followed by two washes with 100 ml or more of TBS-T for 30′ each. The 2 blots were scanned in laser scanner to check for complete stripping. The blots were activated with methanol for 5 seconds, washed with water for 5 minutes, and TBST for 15 minutes. The blots were blocked for 1 hour with 5% blocking reagent in TBS-T at room temperature and then washed 3 times with TBS-T (1X−15′; 2X5′ each) and probed with the rabbit polyclonal antibody for Pyruvate Kinase M2 in 5% BSA (NOVUS BIOLOGICALS catalog #H00005315-D01P) at 1:500 dilution overnight at 4 deg C. with shaking. After the overnight incubation with primary antibody for Pyruvate Kinase M2, the membranes were washed 3 times with TBS-T (1X−15′; 2X5′ each) and probed with the secondary antibody (antirabbit; 1:10,000 dilution) for 1 h on the orbital tilting shaker at room temperature. […]
For orientation: A western blot detects proteins with antibodies after separation by electrophoresis.

Another data set relates to HDFa cells. Put plainly: OCR and ECAR, SeaHorse XF analyzer. It counts as cell-based, human. An excerpt:
(SeaHorse Biosciences Inc, North Billerica, Mass.).
In this experiment, the OCR and extracellular acidification rate (ECAR) in normal cells lines were obtained in the presence and absence of CoQ10 to determine baseline values. It was observed that in its native nutrient environment, the basal OCR rates in normal cells lines are different, and are usually a function of the physiological roles of the cells in the body. […]
Table 97 below describes the ECAR values (mpH/min) in HDFa cells in the presence or absence of CoQ10 under normoxic and hypoxic conditions at 5.5 mM and 22 mM glucose.

The conditions of data set [2]: rats; Bhagavan et al.; cited from earlier work.

Turning to `COC1=C(OC)C(=O)C(C/C=C(\C)CC/C=C(\C)CC/C=C(\C)CC/C=C(\C)CC/C=C(\C)CC/C=C(\C)CC/C=C(\C)CC/C=C(\C)CC/C=C(\C)CCC=C(C)C)=C(C)C1=O` [Q10, Coenzyme Q10], the PKM2 expression result in data set [1] is “dose-dependent decrease in the PKM2 expression”. Besides, the ECAR with HDFa cells (50 μM, Hypoxia (5.5 mM) glucose) worked out at 5 mpH/min; with HDFa cells (50 μM, Hypoxia (22 mM) glucose), 6 mpH/min; with HDFa cells (50 μM, Normoxia (5.5 mM) glucose), 6 mpH/min; in the data set with HDFa cells (50 μM, Normoxia (22 mM) glucose), 5 mpH/min; with HDFa cells (100 μM, Hypoxia (5.5 mM) glucose), 5 mpH/min; in the data set with HDFa cells (100 μM, Hypoxia (22 mM) glucose), 8 mpH/min. For the same compound, the ECAR in the data set with HDFa cells (100 μM, Normoxia (5.5 mM) glucose) is on record as 6 mpH/min; in the data set on HDFa cells (100 μM, Normoxia (22 mM) glucose), 5 mpH/min; in the data set on HDFa cells (HDFa, high glucose hypoxic conditions) it was “lowering of elevated ECAR to a value that was observed in untreated normoxic conditions”. Further, the ECAR values entry in the data set with HDFa cells (HDFa, normoxic and hypoxic, 5.5 mM and 22 mM glucose) is “minimal influence on ECAR values”. The “orally-administered CoQ10 absorbed” value in data set [2] is reported as 2-3%.

Source of the values: patent publication US10519504B2, “Methods for treatment of oncological disorders using epimetabolic shifters, multidimensional intracellular molecules, or environmental influencers” (Berg LLC, priority 2009, dated 2019).
